From patent US6107313A, “Dopamine receptor antagonists” (CombiChem, Inc., priority 1998, dated 2000)

Legend:
[1] = target: T1, Dopamine, D2s (Human Recombinant) (Homo sapiens, UniProt P14416); test: dopamine D2 receptor binding assay, [3H]spiperone, human recombinant (A9L cells); details: 1 h, N = 2, read-out: % Specific Binding; for activity at 10 µM: concentration 1.0E-5, average; for activity at 1 µM: concentration 1.0E-6, average; for activity at 0.1 µM: concentration 1.0E-7, average; for activity at 0.01 µM: concentration 1.0E-8, average; for activity at 0.001 µM: concentration 1.0E-9, average; for activity at 3 µM: concentration 3.0E-6, average; for activity at 0.3 µM: concentration 3.0E-7, average; for activity at 0.03 µM: concentration 3.0E-8, average; for activity at 0.003 µM: concentration 3.0E-9, average; for activity at 0.0003 µM: concentration 3.0E-10, average
T1 construct: expressed in transfected cells; host or cells: A9L cells (membranes)
T1 sequence (P14416 1-414 isoform P14416-2): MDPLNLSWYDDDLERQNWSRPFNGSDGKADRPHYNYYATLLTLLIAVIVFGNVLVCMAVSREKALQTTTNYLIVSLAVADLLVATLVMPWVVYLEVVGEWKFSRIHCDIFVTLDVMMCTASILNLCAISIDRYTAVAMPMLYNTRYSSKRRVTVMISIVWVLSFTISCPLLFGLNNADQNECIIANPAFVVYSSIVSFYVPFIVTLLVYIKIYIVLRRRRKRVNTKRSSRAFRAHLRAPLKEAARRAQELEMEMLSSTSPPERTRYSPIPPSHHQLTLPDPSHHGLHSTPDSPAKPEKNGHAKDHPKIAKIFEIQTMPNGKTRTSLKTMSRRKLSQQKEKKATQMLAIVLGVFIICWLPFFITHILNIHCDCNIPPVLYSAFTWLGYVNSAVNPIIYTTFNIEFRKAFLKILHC
Protocol: (§1) Following incubation, the membranes were rapidly filtered under vacuum through GF/B glass fiber filters (Packard). The filters were then washed several times with an ice-cold buffer using a Packard cell harvester.
(§2) Bound radioactivity was measured with a scintillation counter (Topcount, Packard) using a liquid scintillation cocktail (Microscint 0, Packard).
(§3) The compounds were tested in each assay at ten concentrations in duplicate to obtain competition curves.
(§4) In each experiment, the respective reference compound was simultaneously tested at eight concentrations in duplicate to obtain competition curves in order to validate this experiment.
(§5) The specific radioligand binding to the receptors is defined as the difference between total binding and nonspecific binding determined in the presence of an excess of unlabelled ligand (see section 2.1).
(§6) Results are expressed as a percent of control specific binding obtained in the presence of the test compounds.
(§7) These parameters were obtained by Hill equation curve fitting. The inhibition constants (Ki) were calculated from the Cheng Prusoff equation (Ki =IC50 /(1+L/KD), where L=concentration of radioligand in the assay, and KD=affinity of radioligand for the receptor).
(§8) Reactions were carried out in 50 mM TRIS-HCl (pH 7.4) containing 120 mM NaCl, 5 mM KCl, 5 mM MgCl2, 1mM EDTA for 60 minutes at 25 ° C. The reaction was terminated by rapid vacuum filtration onto glass fiber filters. Radioactivity trapped onto the filters was determined and compared to control values in order to ascertain any interactions of test compound(s) with the cloned dopamine D2 short binding site.

[2] = target: T2, Dopamine, D4.4 (Human Recombinant) (Homo sapiens, UniProt P21917); test: dopamine D4.4 receptor binding assay, [3H]spiperone, human recombinant (CHO cells); details: 1 h, N = 2, read-out: % Specific Binding; for activity at 10 µM: concentration 1.0E-5, average; for activity at 1 µM: concentration 1.0E-6, average; for activity at 0.1 µM: concentration 1.0E-7, average; for activity at 0.01 µM: concentration 1.0E-8, average; for activity at 0.001 µM: concentration 1.0E-9, average; for activity at 3 µM: concentration 3.0E-6, average; for activity at 0.3 µM: concentration 3.0E-7, average; for activity at 0.03 µM: concentration 3.0E-8, average; for activity at 0.003 µM: concentration 3.0E-9, average; for activity at 0.0003 µM: concentration 3.0E-10, average
T2 construct: expressed in transfected cells; host or cells: CHO cells (membranes)
T2 sequence (P21917 1-419): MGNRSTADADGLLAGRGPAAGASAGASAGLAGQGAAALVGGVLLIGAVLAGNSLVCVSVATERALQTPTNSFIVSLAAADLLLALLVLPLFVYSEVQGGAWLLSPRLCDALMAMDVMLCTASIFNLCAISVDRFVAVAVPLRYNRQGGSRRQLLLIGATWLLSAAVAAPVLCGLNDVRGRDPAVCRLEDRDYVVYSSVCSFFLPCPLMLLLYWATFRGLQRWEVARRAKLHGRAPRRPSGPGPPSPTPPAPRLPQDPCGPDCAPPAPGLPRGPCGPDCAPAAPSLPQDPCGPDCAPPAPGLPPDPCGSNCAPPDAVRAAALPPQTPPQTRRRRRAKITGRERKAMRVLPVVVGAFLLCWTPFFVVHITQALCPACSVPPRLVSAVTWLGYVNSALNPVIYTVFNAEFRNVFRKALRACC
Protocol: [The source words this procedure for another target and reports this target under the same test.] as §1, §2, §3, §4, §5, §6, §7, §8

## Cc1ccc(-c2noc(C3CCN(Cc4ccc(Cl)c(Cl)c4)CC3)n2)cc1 [Compound 5a, 4-(3-p-tolyl-1,2,4-oxadiazol-5-yl)-N-(3,4-dichlorobenzyl) piperidine]
[1]
  activity at 10 µM: 116%
  activity at 1 µM: 102%
  activity at 0.1 µM: 84.7%
  activity at 0.01 µM: 89.7%
  activity at 0.001 µM: 93.4%
  activity at 3 µM: 99.4%
  activity at 0.3 µM: 101%
  activity at 0.03 µM: 107%
  activity at 0.003 µM: 90.8%
  activity at 0.0003 µM: 89.9%
[2]
  activity at 10 µM: 3.57%
  activity at 1 µM: 46.6%
  activity at 0.1 µM: 76.8%
  activity at 0.01 µM: 81%
  activity at 0.001 µM: 80.2%
  activity at 3 µM: 16.4%
  activity at 0.3 µM: 80.4%
  activity at 0.03 µM: 76.3%
  activity at 0.003 µM: 84.4%
  activity at 0.0003 µM: 90.9%

## Clc1ccc(CN2CCC(c3nc(-c4cccs4)no3)CC2)cc1 [Compound 5b, 4-[3-(2-thienyl)-1,2,4-oxadiazol-5-yl]-N-(4-chlorobenzyl) piperidine]
[1]
  activity at 10 µM: 24.6%
  activity at 1 µM: 91.3%
  activity at 0.1 µM: 112%
  activity at 0.01 µM: 103%
  activity at 0.001 µM: 104%
  activity at 3 µM: 61.9%
  activity at 0.3 µM: 116%
  activity at 0.03 µM: 104%
  activity at 0.003 µM: 97.3%
  activity at 0.0003 µM: 116%
[2]
  activity at 10 µM: -3.8%
  activity at 1 µM: 0.44%
  activity at 0.1 µM: 22.8%
  activity at 0.01 µM: 53.6%
  activity at 0.001 µM: 76%
  activity at 3 µM: -0.19%
  activity at 0.3 µM: 4.28%
  activity at 0.03 µM: 29.7%
  activity at 0.003 µM: 73.1%
  activity at 0.0003 µM: 82.3%

## Clc1cccc(CN2CCC(c3nc(-c4cccs4)no3)CC2)c1 [Compound 5c, 4-[3-(2-thienyl)-1,2,4-oxadiazol-5-yl]-N-(3-chlorobenzyl) piperidine]
[1]
  activity at 10 µM: 33%
  activity at 1 µM: 101%
  activity at 0.1 µM: 87.7%
  activity at 0.01 µM: 88.3%
  activity at 0.001 µM: 94.8%
  activity at 3 µM: 102%
  activity at 0.3 µM: 94.6%
  activity at 0.03 µM: 84.9%
  activity at 0.003 µM: 108%
  activity at 0.0003 µM: 98.5%
[2]
  activity at 10 µM: -7.32%
  activity at 1 µM: 1.74%
  activity at 0.1 µM: 29.2%
  activity at 0.01 µM: 81.9%
  activity at 0.001 µM: 107%
  activity at 3 µM: 4.6%
  activity at 0.3 µM: 4.79%
  activity at 0.03 µM: 60%
  activity at 0.003 µM: 95.2%
  activity at 0.0003 µM: 109%

## COc1ccc(CN2CCC(c3nc(-c4ccccc4C)no3)CC2)cc1 [Compound 5d, 4-(3-o-tolyl-1,2,4-oxadiazol-5-yl)-N-(4-methoxybenzyl) piperidine]
[1]
  activity at 10 µM: 39.5%
  activity at 1 µM: 106%
  activity at 0.1 µM: 105%
  activity at 0.01 µM: 100%
  activity at 0.001 µM: 104%
  activity at 3 µM: 113%
  activity at 0.3 µM: 117%
  activity at 0.03 µM: 99.8%
  activity at 0.003 µM: 105%
  activity at 0.0003 µM: 85.2%
[2]
  activity at 10 µM: 2.15%
  activity at 1 µM: 6.58%
  activity at 0.1 µM: 47.5%
  activity at 0.01 µM: 92.1%
  activity at 0.001 µM: 102%
  activity at 3 µM: 12.2%
  activity at 0.3 µM: 22.9%
  activity at 0.03 µM: 77.1%
  activity at 0.003 µM: 96.4%
  activity at 0.0003 µM: 101%
